Assay results taken from ChEMBL document CHEMBL1159130, “1,2,4-Triacylpiperidine substance p antagonists: Separation of affinities for the NK-1 receptor and the L-type calcium channel” (Bioorg Med Chem Lett, 1995).

Legend:
[1] = Inhibition of [3H]diltiazem binding to L-type calcium channels of rabbit skeletal muscle; format: tissue-based, Oryctolagus cuniculus, Muscle tissue
Substance-P receptor = Substance-P receptor (Homo sapiens, UniProt P25103); experiment: Inhibition of [125I]-substance P binding to human neurokinin-1 (hNK-1) receptor in CHO cells; format: cell-based
Chain of Substance-P receptor (P25103 whole entry): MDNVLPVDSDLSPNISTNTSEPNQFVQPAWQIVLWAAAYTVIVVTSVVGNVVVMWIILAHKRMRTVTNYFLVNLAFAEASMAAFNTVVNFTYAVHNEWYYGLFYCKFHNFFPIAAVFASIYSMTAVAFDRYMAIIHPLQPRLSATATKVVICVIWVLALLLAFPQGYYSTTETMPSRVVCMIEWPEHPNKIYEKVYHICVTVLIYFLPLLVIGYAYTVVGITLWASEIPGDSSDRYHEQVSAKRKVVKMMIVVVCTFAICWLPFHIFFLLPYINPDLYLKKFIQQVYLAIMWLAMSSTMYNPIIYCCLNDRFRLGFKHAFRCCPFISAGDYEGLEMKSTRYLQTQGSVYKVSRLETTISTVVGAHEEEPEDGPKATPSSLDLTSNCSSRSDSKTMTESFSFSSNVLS

Compound	IC50 [1] [nM]	IC50 (Substance-P receptor) [nM]
CCCCCN(CCCCC)C(=O)[C@H]1CCN(C(=O)N(c2ccccc2)c2ccccc2)[C@H](C(=O)NCCN(CC(N)=O)Cc2ccccc2OC)C1	5600	1.8
CCCCCN(CCCCC)C(=O)[C@H]1CCN(C(=O)N(c2ccccc2)c2cccc(Cl)c2)[C@H](C(=O)NCCN(CC(N)=O)Cc2ccccc2OC)C1	16200	3.8
COc1ccccc1CN[C@H]1C2CCN(CC2)[C@H]1C(c1ccccc1)c1ccccc1 [CP-96345]	240	–
COc1ccccc1CN(C)CCNC(=O)[C@@H]1C[C@@H](C(=O)N(Cc2ccccc2)Cc2ccccc2)CCN1C(=O)N(c1ccccc1)c1cccc(Cl)c1	110	0.7
CCCCCN(CCCCC)C(=O)[C@H]1CCN(C(=O)N(c2ccccc2)c2cccc(Cl)c2)[C@H](C(=O)NCCN(CC(N)=O)C(=O)OCc2ccccc2)C1	> 5000	1.8
CCCCCN(CCCCC)C(=O)[C@@H]1CCN(C(=O)N(c2ccccc2)c2ccccc2)[C@H](C(=O)NCCN(C)Cc2ccccc2OC)C1	–	73
CCCCCN(CCCCC)C(=O)[C@H]1CCN(C(=O)N(c2ccccc2)c2ccccc2)[C@H](C(=O)O)C1	> 5000	33
CCCCCN(CCCCC)C(=O)[C@H]1CCN(C(=O)N(c2ccccc2)c2cccc(Cl)c2)[C@H](C(=O)NCCN(C)Cc2ccccc2OC)C1	210	1.4
CCCCCN(CCCCC)C(=O)[C@H]1CCN(C(=O)N(c2ccccc2)c2ccccc2)[C@H](C(=O)NCCNCC(N)=O)C1	2700	13
CCCCCN(CCCCC)C(=O)[C@H]1CCN(C(=O)N(c2ccccc2)c2cccc(Cl)c2)[C@H](C(=O)NCCNCC(N)=O)C1	3700	3.5
CCCCCN(CCCCC)C(=O)[C@H]1CCN(C(=O)N(c2ccccc2)c2ccccc2)[C@H](C(=O)NCCCN(CC)CC)C1	820	5.5
COC(=O)[C@H]1CCN(C(=O)N(c2ccccc2)c2ccccc2)[C@H](C(=O)NCCN(C)Cc2ccccc2OC)C1	470	250
CCCCCN(CCCCC)C(=O)[C@H]1CCN(C(=O)N(c2ccccc2)c2cccc(Cl)c2)[C@H](C(=O)O)C1	> 5000	20
CCCCCN(CCCCC)C(=O)N1CCN(C(=O)N(c2ccccc2)c2cccc(Cl)c2)[C@H](C(=O)NCCCN(CC)CC)C1	–	8
CCCCCN(CCCCC)C(=O)[C@H]1CCN(C(=O)N(c2ccccc2)c2ccccc2)[C@H](C(=O)NCCN(C)Cc2ccccc2OC)C1	200	1.8
